Test results reported in ChEMBL document CHEMBL1201862, “PubChem BioAssay data set” (2004).
Each block holds one compound with its values, some of them ahead of it. Calls of active or inactive are those of the source.

What was measured:
Jurkat = assay: SAR Analysis of small molecule inhibitors of […] specific antigen receptor-induced NF-kB activation in a Jurkat cell line using a luminescence assay - Set 3. [Related pubchem assays (depositor defined):AID435022, AID435025, AID465]; assay type: functional, cell-based; conditions: Homo sapiens
HEK293 [1] = assay: SAR Analysis of small molecule inhibitors of B-cell specific antigen receptor-induced NF-kB activation in a HEK-293T cell line using a luminescence assay - Set 2. [Related pubchem assays (depositor defined):AID435022, AID435025, AID489021]; assay type: functional, cell-based; conditions: Homo sapiens
HEK293 [2] = assay: HEK293T cell viability loss, resazurin readout – resazurin fluorescence, cytotoxicity control for NF-kB activator project, SAR follow-up (AID 493251); assay type: functional, cell-based; conditions: Homo sapiens
Beta-galactosidase = Beta-galactosidase (Escherichia coli, UniProt Q8VNN2); assay: PubChem AID 485352; assay type: functional
[3] = target: Epstein-Barr nuclear antigen 1 (Epstein-Barr virus (strain B95-8) (HHV-4) (Human herpesvirus 4), UniProt P03211); assay: inhibition of EBV nuclear antigen 1 DNA binding – biochemical, fluorescence polarization, 1536-well, dose response (AID 2381); set-up: species or system human gammaherpesvirus 4;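 also: fluorescence polarization of a Cy5 DNA probe bound by EBNA-1 protein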
[4] = target: Type-1 angiotensin II receptor (Homo sapiens, UniProt P30556); assay: antagonism of angiotensin II type 1 receptor – cell-based, uHTS hits, selectivity assay for APJ receptor antagonist project, dose response (AID 463214); assay type: functional;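 also: antagonist potency against angiotensin II stimulated AT1 response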
[5] = target: Lytic switch protein BZLF1 (Epstein-Barr virus (strain B95-8) (HHV-4) (Human herpesvirus 4), UniProt P03206); assay: inhibition of BZLF1 ZTA DNA binding – biochemical, fluorescence polarization, Epstein-Barr virus, 1536-well, counter-screen for EBNA-1 inhibitor project, dose response (AID 2377); set-up: species or system human gammaherpesvirus 4;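 also: fluorescence polarization of Cy5-labelled ZRE DNA probe bound by purified Zta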
HEK293 [6] = assay: EBV LMP1 TES2 canonical NF-kB signalling blockers – cell-based, HEK293, luciferase, cherry-pick, dose response (AID 588343); assay type: functional; conditions: Homo sapiens
[7] = target: Dual specificity tyrosine-phosphorylation-regulated kinase 1A (Rattus norvegicus, UniProt Q63470); assay type: biochemical, Homo sapiens
[8] = target: T1, DNA repair and recombination protein RAD54-like (Homo sapiens, UniProt Q92698); assay: RAD54 Holliday junction migration blockers – biochemical, fluorescence, cherry-picked samples, dose series, confirmation (AID 651657); assay type: functional
T1 sequence (Q92698 whole entry): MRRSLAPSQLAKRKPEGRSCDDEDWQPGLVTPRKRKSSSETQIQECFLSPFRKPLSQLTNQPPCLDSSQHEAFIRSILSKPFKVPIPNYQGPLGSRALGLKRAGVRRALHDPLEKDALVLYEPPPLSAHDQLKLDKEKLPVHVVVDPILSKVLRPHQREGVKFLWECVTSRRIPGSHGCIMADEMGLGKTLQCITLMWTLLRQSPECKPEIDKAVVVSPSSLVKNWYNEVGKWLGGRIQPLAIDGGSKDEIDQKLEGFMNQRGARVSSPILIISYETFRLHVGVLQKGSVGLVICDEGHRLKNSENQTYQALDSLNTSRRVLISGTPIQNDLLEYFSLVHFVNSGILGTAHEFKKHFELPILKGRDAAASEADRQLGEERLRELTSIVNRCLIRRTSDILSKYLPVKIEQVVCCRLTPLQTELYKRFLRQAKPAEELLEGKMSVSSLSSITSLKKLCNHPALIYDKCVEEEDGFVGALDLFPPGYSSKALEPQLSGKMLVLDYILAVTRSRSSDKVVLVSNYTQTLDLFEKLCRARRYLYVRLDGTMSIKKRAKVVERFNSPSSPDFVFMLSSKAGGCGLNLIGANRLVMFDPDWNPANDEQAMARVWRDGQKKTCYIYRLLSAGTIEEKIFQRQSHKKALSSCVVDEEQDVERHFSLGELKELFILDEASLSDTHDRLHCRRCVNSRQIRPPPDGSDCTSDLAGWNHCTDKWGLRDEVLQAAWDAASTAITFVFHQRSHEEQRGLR

[9] = target: T2, DNA repair protein RAD52 homolog (Homo sapiens, UniProt P43351); assay type: functional, biochemical
T2 sequence (P43351 whole entry): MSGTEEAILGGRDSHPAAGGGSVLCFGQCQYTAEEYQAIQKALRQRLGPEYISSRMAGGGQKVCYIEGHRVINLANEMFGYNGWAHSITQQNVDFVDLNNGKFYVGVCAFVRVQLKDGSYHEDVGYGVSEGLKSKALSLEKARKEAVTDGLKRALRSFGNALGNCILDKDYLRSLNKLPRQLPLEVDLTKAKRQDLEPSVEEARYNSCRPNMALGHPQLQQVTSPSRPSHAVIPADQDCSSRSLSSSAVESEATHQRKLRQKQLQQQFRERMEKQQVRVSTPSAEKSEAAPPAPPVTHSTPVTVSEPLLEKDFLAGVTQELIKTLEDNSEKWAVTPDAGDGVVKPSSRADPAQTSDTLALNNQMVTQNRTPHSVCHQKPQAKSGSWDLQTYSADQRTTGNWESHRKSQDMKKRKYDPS

Leucine aminopeptidase = target: T3, Leucine aminopeptidase (Plasmodium falciparum 3D7, UniProt Q8IL11); assay: P. falciparum M17LAP inhibitors, primary screen, biochemical, fluorogenic H-Leu-NHMec substrate, 1536-well (AID 1619); assay type: functional
T3 sequence (Q8IL11 whole entry): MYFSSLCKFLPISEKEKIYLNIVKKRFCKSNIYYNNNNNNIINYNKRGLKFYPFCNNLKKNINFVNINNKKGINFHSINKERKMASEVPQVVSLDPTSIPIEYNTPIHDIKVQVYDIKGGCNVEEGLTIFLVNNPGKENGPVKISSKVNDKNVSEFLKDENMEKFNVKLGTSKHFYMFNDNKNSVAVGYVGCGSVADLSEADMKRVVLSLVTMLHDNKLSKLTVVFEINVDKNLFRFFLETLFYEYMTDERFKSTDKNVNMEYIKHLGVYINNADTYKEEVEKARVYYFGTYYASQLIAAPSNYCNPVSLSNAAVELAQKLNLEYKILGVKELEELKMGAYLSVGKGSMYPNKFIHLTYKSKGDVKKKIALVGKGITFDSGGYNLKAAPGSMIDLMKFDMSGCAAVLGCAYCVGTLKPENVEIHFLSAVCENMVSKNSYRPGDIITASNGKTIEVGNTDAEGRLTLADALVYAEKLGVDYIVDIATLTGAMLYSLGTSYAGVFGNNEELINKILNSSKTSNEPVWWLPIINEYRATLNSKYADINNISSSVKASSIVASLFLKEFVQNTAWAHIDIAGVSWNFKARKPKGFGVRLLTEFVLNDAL

[10] = target: Serine/threonine-protein phosphatase (Candida dubliniensis (strain CD36 / CBS 7987 / NCPF 3949 / NRRLY-17841) (Yeast), UniProt B9W6M3); assay: blockers of CaCl2-induced CDRE-lacZ signaling – S. cerevisiae, luminescence, secondary, dose response (AID 2388); assay type: functional, cell-based;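 also: yeast reporter cells carrying a calcineurin-responsive lacZ construct stimulated with calcium chloride; luminescent beta-galactosidase reporter signal in whole cells rather than isolated phosphatase activity; potency for inhibition where a drop in reporter signal means calcineurin blockade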
[11] = target: ATP-dependent molecular chaperone HSP82 (Candida albicans (strain WO-1) (Yeast), UniProt C4YTQ8); assay: steroid-induced GRE reporter decrease in yeast – S. cerevisiae, luminescence, Hsp90 inhibitor project, dose response (AID 2400); assay type: functional, cell-based;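 also: beta-galactosidase luminescence from glucocorticoid response element reporter as proxy for Hsp90 function; inhibitor potency where signal loss means Hsp90 inhibition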
Chain of ATP-dependent molecular chaperone HSP82 (C4YTQ8 whole entry): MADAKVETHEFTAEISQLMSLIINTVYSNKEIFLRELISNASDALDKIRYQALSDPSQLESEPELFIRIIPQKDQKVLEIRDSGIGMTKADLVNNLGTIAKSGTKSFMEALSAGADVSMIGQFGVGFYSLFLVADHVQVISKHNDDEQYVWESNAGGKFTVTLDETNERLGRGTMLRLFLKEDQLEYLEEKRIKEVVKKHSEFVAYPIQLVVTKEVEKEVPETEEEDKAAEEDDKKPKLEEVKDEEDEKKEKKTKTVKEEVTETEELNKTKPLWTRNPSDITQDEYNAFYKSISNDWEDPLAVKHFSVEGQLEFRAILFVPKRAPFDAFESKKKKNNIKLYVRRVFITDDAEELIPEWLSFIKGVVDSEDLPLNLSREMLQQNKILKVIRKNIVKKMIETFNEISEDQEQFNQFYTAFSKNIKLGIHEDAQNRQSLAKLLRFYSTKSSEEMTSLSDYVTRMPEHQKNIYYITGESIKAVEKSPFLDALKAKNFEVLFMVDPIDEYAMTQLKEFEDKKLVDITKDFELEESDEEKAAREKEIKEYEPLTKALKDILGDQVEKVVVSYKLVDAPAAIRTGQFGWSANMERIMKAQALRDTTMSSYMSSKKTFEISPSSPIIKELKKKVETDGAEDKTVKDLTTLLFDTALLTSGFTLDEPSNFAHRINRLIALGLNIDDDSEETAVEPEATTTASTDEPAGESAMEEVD

Chain of Lytic switch protein BZLF1 (P03206 whole entry): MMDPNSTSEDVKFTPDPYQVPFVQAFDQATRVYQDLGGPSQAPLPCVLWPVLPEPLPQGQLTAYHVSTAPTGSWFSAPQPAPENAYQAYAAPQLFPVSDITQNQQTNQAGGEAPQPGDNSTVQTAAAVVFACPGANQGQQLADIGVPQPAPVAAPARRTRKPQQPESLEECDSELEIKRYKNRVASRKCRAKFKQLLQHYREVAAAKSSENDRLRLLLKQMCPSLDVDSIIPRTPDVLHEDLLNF
Chain of Type-1 angiotensin II receptor (P30556 whole entry): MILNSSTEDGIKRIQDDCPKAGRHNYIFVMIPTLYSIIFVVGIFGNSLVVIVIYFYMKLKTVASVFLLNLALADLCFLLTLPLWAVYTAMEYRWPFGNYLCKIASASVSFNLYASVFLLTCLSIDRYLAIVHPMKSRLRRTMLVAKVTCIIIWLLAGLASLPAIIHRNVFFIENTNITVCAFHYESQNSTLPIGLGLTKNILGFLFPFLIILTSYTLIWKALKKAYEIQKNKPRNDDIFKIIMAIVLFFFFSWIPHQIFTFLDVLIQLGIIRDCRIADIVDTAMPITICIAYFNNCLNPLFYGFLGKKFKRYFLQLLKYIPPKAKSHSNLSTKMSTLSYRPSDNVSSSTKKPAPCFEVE
Chain of Serine/threonine-protein phosphatase (B9W6M3 whole entry): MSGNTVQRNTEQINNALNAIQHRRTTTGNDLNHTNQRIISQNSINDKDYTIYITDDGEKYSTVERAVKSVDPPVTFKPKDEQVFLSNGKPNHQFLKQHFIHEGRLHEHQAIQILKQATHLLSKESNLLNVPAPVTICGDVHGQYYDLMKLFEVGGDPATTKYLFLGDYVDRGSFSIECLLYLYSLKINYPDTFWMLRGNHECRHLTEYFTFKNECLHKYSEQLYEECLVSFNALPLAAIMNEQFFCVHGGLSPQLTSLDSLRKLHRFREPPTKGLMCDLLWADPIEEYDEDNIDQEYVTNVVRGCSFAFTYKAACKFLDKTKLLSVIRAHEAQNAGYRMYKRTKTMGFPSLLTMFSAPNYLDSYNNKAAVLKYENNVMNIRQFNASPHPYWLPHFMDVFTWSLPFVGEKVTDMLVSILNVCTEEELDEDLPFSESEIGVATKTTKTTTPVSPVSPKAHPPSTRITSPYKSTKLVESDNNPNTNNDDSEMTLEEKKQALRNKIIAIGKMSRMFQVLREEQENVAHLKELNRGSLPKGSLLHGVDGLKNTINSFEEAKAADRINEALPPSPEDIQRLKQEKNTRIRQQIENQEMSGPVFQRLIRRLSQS
Chain of Beta-galactosidase (Q8VNN2 whole entry): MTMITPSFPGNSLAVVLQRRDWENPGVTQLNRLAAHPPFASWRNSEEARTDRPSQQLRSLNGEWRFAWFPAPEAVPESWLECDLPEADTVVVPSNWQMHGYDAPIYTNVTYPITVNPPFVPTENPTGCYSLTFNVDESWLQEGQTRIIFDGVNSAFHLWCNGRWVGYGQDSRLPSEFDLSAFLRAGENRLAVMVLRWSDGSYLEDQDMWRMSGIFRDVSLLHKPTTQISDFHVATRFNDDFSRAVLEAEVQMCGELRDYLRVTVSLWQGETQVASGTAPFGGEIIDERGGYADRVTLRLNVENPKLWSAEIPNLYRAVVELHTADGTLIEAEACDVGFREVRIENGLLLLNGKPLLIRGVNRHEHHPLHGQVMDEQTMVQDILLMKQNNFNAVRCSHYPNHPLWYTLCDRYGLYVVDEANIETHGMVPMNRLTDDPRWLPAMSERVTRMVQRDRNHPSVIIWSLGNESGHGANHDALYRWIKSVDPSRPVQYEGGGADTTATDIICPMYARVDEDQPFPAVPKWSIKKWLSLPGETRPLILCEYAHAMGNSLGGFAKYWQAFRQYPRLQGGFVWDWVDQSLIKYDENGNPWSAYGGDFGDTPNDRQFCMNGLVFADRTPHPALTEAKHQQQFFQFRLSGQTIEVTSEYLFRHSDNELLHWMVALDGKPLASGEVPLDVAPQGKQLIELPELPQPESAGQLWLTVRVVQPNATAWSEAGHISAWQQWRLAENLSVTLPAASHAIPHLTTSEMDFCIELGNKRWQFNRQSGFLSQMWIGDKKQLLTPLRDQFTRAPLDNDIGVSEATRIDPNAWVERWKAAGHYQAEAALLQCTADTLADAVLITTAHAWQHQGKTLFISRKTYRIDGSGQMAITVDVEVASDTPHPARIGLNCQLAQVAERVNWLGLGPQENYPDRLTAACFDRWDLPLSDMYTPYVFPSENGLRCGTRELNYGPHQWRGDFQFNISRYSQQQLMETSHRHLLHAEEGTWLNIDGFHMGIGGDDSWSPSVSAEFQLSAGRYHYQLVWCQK
Chain of Epstein-Barr nuclear antigen 1 (P03211 whole entry): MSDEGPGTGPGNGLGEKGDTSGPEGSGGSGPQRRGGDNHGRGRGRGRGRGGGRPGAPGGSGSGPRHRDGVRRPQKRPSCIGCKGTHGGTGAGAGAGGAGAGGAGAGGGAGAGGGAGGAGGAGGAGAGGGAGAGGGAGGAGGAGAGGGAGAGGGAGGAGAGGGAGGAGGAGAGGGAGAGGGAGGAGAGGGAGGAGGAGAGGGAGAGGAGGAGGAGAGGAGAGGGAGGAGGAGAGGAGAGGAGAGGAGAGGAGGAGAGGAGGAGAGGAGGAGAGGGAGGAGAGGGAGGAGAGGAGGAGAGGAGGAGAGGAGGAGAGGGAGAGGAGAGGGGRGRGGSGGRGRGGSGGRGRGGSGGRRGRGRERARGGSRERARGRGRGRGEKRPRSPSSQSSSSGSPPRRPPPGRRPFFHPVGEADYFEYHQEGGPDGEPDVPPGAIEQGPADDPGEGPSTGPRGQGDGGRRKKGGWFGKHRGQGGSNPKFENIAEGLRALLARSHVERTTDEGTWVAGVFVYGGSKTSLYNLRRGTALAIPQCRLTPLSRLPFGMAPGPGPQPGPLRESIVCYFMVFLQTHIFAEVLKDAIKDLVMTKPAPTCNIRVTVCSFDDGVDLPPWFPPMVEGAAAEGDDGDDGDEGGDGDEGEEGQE

Structure (SMILES): CNC(=O)CCc1nc(-c2ccc(Cl)cc2)no1
IC50 (Jurkat): > 80 µM (inactive)
IC50 (HEK293 [1]): > 80 µM (inactive)
IC50 (HEK293 [2]): > 80 µM (inactive)

EC50 (Beta-galactosidase): > 40 µM (inactive)
IC50 [3]: 11.3 µM (not active)
IC50 [4]: > 40 µM (not active)
IC50 [5]: > 111 µM (not active)
Structure (SMILES): CC(C)C(=O)Nc1cccc(C(=O)OCC(=O)c2ccc(Cl)cc2Cl)c1

Structure (SMILES): Nc1cc2ccncc2c2ccccc12
AC50 (HEK293 [6]): 9.97 µM (active)
AC50 [7]: 1.23 µM (active)
AC50 [8]: 11.8 µM (active)
AC50 [9]: 14.2 µM (active)

IC50 (Leucine aminopeptidase): 23.8 µM (active)
EC50 [10]: > 180 µM (inactive)
EC50 [11]: > 150 µM (inactive)
Structure (SMILES): COc1ccc(-n2c(-c3cccc(C)c3[N+](=O)[O-])n[nH]c2=S)cc1
